Assay results taken from patent US4307114A, “Aldose reductase inhibition by (Z)-5-fluoro-2-methyl-1-[[4-(methylsulfinyl)phenyl]methylene]-1H-indene- 3-acetic acid” (Ayerst, McKenna & Harrison, Inc., priority 1980, dated 1981).

Columns and labels:
lens aldose reductase = target: T1, lens aldose reductase (Bos taurus, UniProt P16116); assay: in vitro aldose reductase inhibition test (modified Hayman and Kinoshita procedure, enzyme from bovine lens); type: biochemical
T1 construct: preparation of the enzyme from bovine lens; from tissue; host or cells: bovine lens
Experimental: In the present case the procedure of Hayman and Kinoshita is modified in that the final chromatography step is omitted in the preparation of the enzyme from bovine lens.
The following results were obtained when sulindac was evaluated in the above in vitro test: […]

galactosaemic rats = assay: dulcitol accumulation in lenses and sciatic nerves of galactosaemic rats; type: in vivo, rat; conditions: for Dulcitol Accumulation Sicatic Nerves Percent Decrease / Dulcitol Accumulation Lenses Percent Decrease / Dulcitol Accumulation Sicatic Nerves / Dulcitol Accumulation Lenses: four days
Source text: The aldose reductase inhibiting property of sulindac and its utilization in diminishing and alleviating diabetic complications also are demonstrable in experiments using galactosaemic rats, see D. Dvornik et al., Science, 182, 1146 (1973). Such experiments are exemplified hereinbelow after the listing of the following general comments pertaining to these experiments:
(a) Four or more groups of six male rats, 50-70 g, Sprague-Dawley strain, were used. The first group, the control group, was fed a mixture of laboratory chow (rodent laboratory chow, Purina) and glucose at 20% (w/w %) concentration. The untreated galactosaemic group was fed a similar diet in which galactose is substituted for glucose. The other groups were fed diets containing various amounts of sulindac in the galactose containing diet. The concentration of galactose in the diet of the treated groups was the same as that for the untreated galactosaemic group.
(b) After four days, the animals were killed by decapitation. The eyeballs were removed and punctured with a razor blade; the freed lenses were rolled gently on filter paper and weighed. The sciatic nerves were dissected as completely as possible and weighed. Both tissues were frozen and kept up to two weeks before being analyzed for dulcitol.
(c) The tissues were homoginized in 5% (w/v) trichloroacetic acid and the polyol determination on the extracts was performed by a modification of the procedure of M. Kraml and L. Cosyns, Clin. Biochem., 2, 373 (1969). Only two minor reagent changes were made: (a) The rinsing mixture was an aqueous 5% (w/v) trichloroacetic acid solution and (b) the stock solution was prepared by dissolving 25 mg of dulcitol in 100 ml of an aqueous trichloroacetic acid solution. [N.B.: For each experiment the average value found in the tissue from rats fed the glucose diet was substracted from the individual values found in the corresponding rat tissue to obtain the amount of polyol accumulated].

[1] = Experiment 2, 62 mg/kg/day in diet, p < 0.01

SMILES: CC1=C(CC(=O)O)c2cc(F)ccc2/C1=C\c1ccc([S+](C)[O-])cc1 (stereo not drawn) [Sulindac, (Z)-5-Fluoro-2-methyl-1-[[4-(methylsulfinyl)phenyl]methylene]-1H-indene-3-acetic acid]
- inhibition of lens aldose reductase (in words) (lens aldose reductase): potent inhibitor of lens aldose reductase
- Percent Inhibition (lens aldose reductase; concentration 10^-5 Mole/l): 88%
- Percent Inhibition (lens aldose reductase; concentration 10^-6 Mole/l): 60%
- Percent Inhibition (lens aldose reductase; concentration 10^-7 Mole/l): 18%
- Dulcitol Accumulation Sicatic Nerves Percent Decrease (galactosaemic rats; Experiment 1, 31 mg/kg/day in diet, p < 0.001): 39%
- Dulcitol Accumulation Lenses Percent Decrease (galactosaemic rats; Experiment 1, 31 mg/kg/day in diet, t test N.S.): 8%
- Dulcitol Accumulation Sicatic Nerves (galactosaemic rats; Experiment 1, 31 mg/kg/day in galactose diet, untreated 1.67 ± 0.08): 1.02 ± 0.09 µg/mg
- Dulcitol Accumulation Lenses (galactosaemic rats; Experiment 1, 31 mg/kg/day in galactose diet, untreated 12.01 ± 0.38): 11.10 ± 0.28 µg/mg
- Dulcitol Accumulation Lenses Percent Decrease (galactosaemic rats; Experiment 2, 25 mg/kg/day in diet, p < 0.01): 14%
- Dulcitol Accumulation Sicatic Nerves Percent Decrease (galactosaemic rats; Experiment 2, 25 mg/kg/day in diet, t test N.S.): 36%
- Dulcitol Accumulation Sicatic Nerves (galactosaemic rats; Experiment 2, 25 mg/kg/day in galactose diet, untreated 1.30 ± 0.14): 0.83 ± 0.19 µg/mg
- Dulcitol Accumulation Lenses (galactosaemic rats; Experiment 2, 25 mg/kg/day in galactose diet, untreated 12.10 ± 0.30): 10.46 ± 0.32 µg/mg
- Dulcitol Accumulation Lenses Percent Decrease (galactosaemic rats; Experiment 2, 47 mg/kg/day in diet, p < 0.01): 12%
- Dulcitol Accumulation Sicatic Nerves Percent Decrease (galactosaemic rats; Experiment 2, 47 mg/kg/day in diet, p < 0.05): 34%
- Dulcitol Accumulation Sicatic Nerves (galactosaemic rats; Experiment 2, 47 mg/kg/day in galactose diet, untreated 1.30 ± 0.14): 0.85 ± 0.10 µg/mg
- Dulcitol Accumulation Lenses (galactosaemic rats; Experiment 2, 47 mg/kg/day in galactose diet, untreated 12.10 ± 0.30): 10.71 ± 0.22 µg/mg
- Dulcitol Accumulation Lenses Percent Decrease (galactosaemic rats; [1]): 17%
- Dulcitol Accumulation Sicatic Nerves Percent Decrease (galactosaemic rats; [1]): 49%
- Dulcitol Accumulation Sicatic Nerves (galactosaemic rats; Experiment 2, 62 mg/kg/day in galactose diet, untreated 1.30 ± 0.14): 0.67 ± 0.04 µg/mg
- Dulcitol Accumulation Lenses (galactosaemic rats; Experiment 2, 62 mg/kg/day in galactose diet, untreated 12.10 ± 0.30): 10.06 ± 0.43 µg/mg
- accumulation of dulcitol in the lenses and sciatic nerves of rats fed galactose (in words) (galactosaemic rats; as compared to an untreated animal): diminishes and alleviates the accumulation of dulcitol
